Counter-ions that a name gives are not always drawn.

The first experiment has as its system recombinant NL4-3 virus (Renilla luciferase in nef, Gag P373S; NLRluc) in MT-2 cells. Put plainly: whole plant or invertebrate. The following applies: Renilla, NL43, luciferase activity in cells infected for 4-5 days with NLRluc recombinants, serial dilutions of inhibitor; class symbols (key in Table 1); read-out: EC50. In kind it is cell-based, HIV. The procedure, abridged:
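MT-2 cells in RPMI 1640 with 10% heat-inactivated FBS were infected with the reporter virus, made by transfecting the proviral clone into 293T cells, and cultured 4-5 days with serial inhibitor dilutions. Antiviral activity was quantified from Renilla luciferase activity measured in lysed cells.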
By EC50 is commonly meant the concentration that produces a half-maximal response. Consider `C=C(C)[C@@H]1CC[C@]2(N(CCN3CCS(=O)(=O)CC3)C(C)=O)CC[C@]3(C)[C@H](CC[C@@H]4[C@@]5(C)CC=C(c6ccc(C(=O)O)cc6)C(C)(C)[C@@H]5CC[C@]43C)[C@@H]12` [Example 178, 4-((1R,3aS,5aR,5bR,7aR,11aS,11bR,13aR,13bR)-3a-(acetyl(2-(1,1-dioxido-4-thiomorpholinyl)ethyl)amino)-1-isopropenyl-5a,5b,8,8,11a-pentamethyl-2,3,3a,4,5,5a,5b,6,7,7a,8,11,11a,11b,12,13,13a,13b-octadecahydro-1H-cyclopenta[a]chrysen-9-yl)benzoic acid], for which the concentration for a half-maximal effect (EC50) was below 100 nM.

In the case of `C=C(C)[C@@H]1CC[C@]2(NCCF)CC[C@]3(C)[C@H](CC[C@@H]4[C@@]5(C)CC=C(c6ccc(C(=O)O)cc6)C(C)(C)[C@@H]5CC[C@]43C)[C@@H]12` [Example 179, 4-((1R,3aS,5aR,5bR,7aR,11aS,11bR,13aR,13bR)-3a-((2-fluoroethyl)amino)-5a,5b,8,8,11a-pentamethyl-1-(prop-1-en-2-yl)-2,3,3a,4,5,5a,5b,6,7,7a,8,11,11a,11b,12,13,13a,13b-octadecahydro-1H-cyclopenta[a]chrysen-9-yl)benzoic acid], the EC50 is below 100 nM.

On to `C=C(C)[C@@H]1CC[C@]2(NCC)CC[C@]3(C)[C@H](CC[C@@H]4[C@@]5(C)CC=C(c6ccc(C(=O)O)cc6)C(C)(C)[C@@H]5CC[C@]43C)[C@@H]12` [Example 180, 4-((1R,3aS,5aR,5bR,7aR,11aS,11bR,13aR,13bR)-3a-(ethylamino)-5a,5b,8,8,11a-pentamethyl-1-(prop-1-en-2-yl)-2,3,3a,4,5,5a,5b,6,7,7a,8,11,11a,11b,12,13,13a,13b-octadecahydro-1H-cyclopenta[a]chrysen-9-yl)benzoic acid], for which the EC50 is below 100 nM.

Consider `C=C(C)[C@@H]1CC[C@]2(NCC(C)C)CC[C@]3(C)[C@H](CC[C@@H]4[C@@]5(C)CC=C(c6ccc(C(=O)O)cc6)C(C)(C)[C@@H]5CC[C@]43C)[C@@H]12` [Example 181, 4-((1R,3aS,5aR,5bR,7aR,11aS,11bR,13aR,13bR)-3a-(isobutylamino)-5a,5b,8,8,11a-pentamethyl-1-(prop-1-en-2-yl)-2,3,3a,4,5,5a,5b,6,7,7a,8,11,11a,11b,12,13,13a,13b-octadecahydro-1H-cyclopenta[a]chrysen-9-yl)benzoic acid], for which the EC50 is below 100 nM.

Regarding `C=C(C)[C@@H]1CC[C@]2(NCCC(F)(F)F)CC[C@]3(C)[C@H](CC[C@@H]4[C@@]5(C)CC=C(c6ccc(C(=O)O)cc6)C(C)(C)[C@@H]5CC[C@]43C)[C@@H]12` [Example 182, 4-((1R,3aS,5aR,5bR,7aR,11aS,11bR,13aR,13bR)-5a,5b,8,8,11a-pentamethyl-1-(prop-1-en-2-yl)-3a-((3,3,3-trifluoropropyl)amino)-2,3,3a,4,5,5a,5b,6,7,7a,8,11,11a,11b,12,13,13a,13b-octadecahydro-1H-cyclopenta[a]chrysen-9-yl)benzoic acid], the EC50 is above 100 nM.

Regarding `C=C(C)[C@@H]1CC[C@]2(Nc3nc(C)c(C)s3)CC[C@]3(C)[C@H](CC[C@@H]4[C@@]5(C)CC=C(c6ccc(C(=O)O)cc6)C(C)(C)[C@@H]5CC[C@]43C)[C@@H]12` [Example 183, 4-((1R,3aS,5aR,5bR,7aR,11aS,11bR,13aR,13bR)-3a-(4,5-dimethylthiazol-2-ylamino)-5a,5b,8,8,11a-pentamethyl-1-(prop-1-en-2-yl)-2,3,3a,4,5,5a,5b,6,7,7a,8,11,11a,11b,12,13,13a,13b-octadecahydro-1H-cyclopenta[a]chrysen-9-yl)benzoic acid], the EC50 was below 100 nM.

For the molecule `C=C(C)[C@@H]1CC[C@]2(Nc3nc(CC)cs3)CC[C@]3(C)[C@H](CC[C@@H]4[C@@]5(C)CC=C(c6ccc(C(=O)O)cc6)C(C)(C)[C@@H]5CC[C@]43C)[C@@H]12` [Example 184B, 4-((1R,3aS,5aR,5bR,7aR,11aS,11bR,13aR,13bR)-3a-(4-ethylthiazol-2-ylamino)-5a,5b,8,8,11a-pentamethyl-1-(prop-1-en-2-yl)-2,3,3a,4,5,5a,5b,6,7,7a,8,11,11a,11b,12,13,13a,13b-octadecahydro-1H-cyclopenta[a]chrysen-9-yl)benzoic acid], the EC50 is below 100 nM.

For the molecule `C=C(C)[C@@H]1CC[C@]2(Nc3nc(C(C)(C)C)cs3)CC[C@]3(C)[C@H](CC[C@@H]4[C@@]5(C)CC=C(c6ccc(C(=O)O)cc6)C(C)(C)[C@@H]5CC[C@]43C)[C@@H]12` [Example 185, 4-((1R,3aS,5aR,5bR,7aR,11aS,11bR,13aR,13bR)-3a-(4-tert-butylthiazol-2-ylamino)-5a,5b,8,8,11a-pentamethyl-1-(prop-1-en-2-yl)-2,3,3a,4,5,5a,5b,6,7,7a,8,11,11a,11b,12,13,13a,13b-octadecahydro-1H-cyclopenta[a]chrysen-9-yl)benzoic acid], the EC50 is above 100 nM.

As for `C=C(C)[C@@H]1CC[C@]2(Nc3nc(-c4ccccn4)cs3)CC[C@]3(C)[C@H](CC[C@@H]4[C@@]5(C)CC=C(c6ccc(C(=O)O)cc6)C(C)(C)[C@@H]5CC[C@]43C)[C@@H]12` [Example 187, 4-((1R,3aS,5aR,5bR,7aR,11aS,11bR,13aR,13bR)-5a,5b,8,8,11a-pentamethyl-1-(prop-1-en-2-yl)-3a-(4-(pyridin-2-yl)thiazol-2-ylamino)-2,3,3a,4,5,5a,5b,6,7,7a,8,11,11a,11b,12,13,13a,13b-octadecahydro-1H-cyclopenta[a]chrysen-9-yl)benzoic acid, TFA], the EC50 is below 100 nM.

Staying with this experiment, now noted: Renilla, NL43, luciferase activity in cells infected for 4-5 days with NLRluc recombinants, serial dilutions of inhibitor; numeric values; read-out: EC50.
`C=C(C)[C@@H]1CC[C@]2(N(C)C)CC[C@]3(C)[C@H](CC[C@@H]4[C@@]5(C)CC=C(c6ccc(C(=O)O)cc6)C(C)(C)[C@@H]5CC[C@]43C)[C@@H]12` [Example 177, 4-((1R,3aS,5aR,5bR,7aR,11aS,11bR,13aR,13bR)-3a-(dimethylamino)-5a,5b,8,8,11a-pentamethyl-1-(prop-1-en-2-yl)-2,3,3a,4,5,5a,5b,6,7,7a,8,11,11a,11b,12,13,13a,13b-octadecahydro-1H-cyclopenta[a]chrysen-9-yl)benzoic acid]: the EC50 amounted to 9 nM.

Turning to `C=C(C)[C@@H]1CC[C@]2(N(CC(=O)CC)c3nc(CC)cs3)CC[C@]3(C)[C@H](CC[C@@H]4[C@@]5(C)CC=C(c6ccc(C(=O)O)cc6)C(C)(C)[C@@H]5CC[C@]43C)[C@@H]12` [Example 184A, 4-((1R,3aS,5aR,5bR,7aR,11aS,11bR,13aR,13bR)-3a-((4-ethylthiazol-2-yl)(2-oxobutyl)amino)-5a,5b,8,8,11a-pentamethyl-1-(prop-1-en-2-yl)-2,3,3a,4,5,5a,5b,6,7,7a,8,11,11a,11b,12,13,13a,13b-octadecahydro-1H-cyclopenta[a]chrysen-9-yl)benzoic acid], the EC50 was 390 nM.

Staying with this experiment, now noted: luciferase activity in cells infected for 4-5 days with NLRluc recombinants, serial dilutions of inhibitor; class symbols (key in Table 1); read-out: EC50.
With `C=C(C)[C@@H]1CC[C@]2(NC)CC[C@]3(C)[C@H](CC[C@@H]4[C@@]5(C)CC=C(c6ccc(C(=O)O)cc6)C(C)(C)[C@@H]5CC[C@]43C)[C@@H]12` [Example 176, 4-((1R,3aS,5aR,5bR,7aR,11aS,11bR,13aR,13bR)-5a,5b,8,8,11a-pentamethyl-3a-(methylamino)-1-(prop-1-en-2-yl)-2,3,3a,4,5,5a,5b,6,7,7a,8,11,11a,11b,12,13,13a,13b-octadecahydro-1H-cyclopenta[a]chrysen-9-yl)benzoic acid, HCl], the EC50 is below 100 nM.
